Laboratory results: the NIST ThermoML archive (doi:10.1016/j.jct.2016.10.005)

Assay: excess molar enthalpy (molar enthalpy of mixing); xn = mol fraction of the nth substance listed
Conditions: 100 kPa, Liquid, Flow calorimetry

C1CCCCC1 [cyclohexane] + CCCO
excess molar enthalpy [kcal/mol]
Conditions	298.15 K	313.15 K
x1 = 0.0503	0.0217	0.0256
x1 = 0.1005	0.0413	0.0497
x1 = 0.1499	0.059	0.0717
x1 = 0.2005	0.0755	0.0927
x1 = 0.2498	–	0.112
x1 = 0.2499	0.0903	–
x1 = 0.3004	–	0.129
x1 = 0.3005	0.104	–
x1 = 0.3502	–	0.145
x1 = 0.3503	0.116	–
x1 = 0.4001	–	0.159
x1 = 0.4003	0.127	–
x1 = 0.45	–	0.171
x1 = 0.4501	0.136	–
x1 = 0.4997	–	0.181
x1 = 0.4998	0.143	–
x1 = 0.5502	–	0.189
x1 = 0.5504	0.149	–
x1 = 0.6006	0.152	0.194
x1 = 0.6503	0.153	0.196
x1 = 0.6994	–	0.194
x1 = 0.6995	0.152	–
x1 = 0.7503	–	0.189
x1 = 0.8005	0.139	0.179
x1 = 0.8497	0.127	0.165
x1 = 0.9005	0.109	0.143
x1 = 0.9502	0.0827	0.11

CC1CCCCC1 [methylcyclohexane] + CCCO
excess molar enthalpy [kcal/mol]
Conditions	298.15 K	313.15 K
x1 = 0.0498	0.0179	0.0239
x1 = 0.1005	0.0344	0.0466
x1 = 0.1504	0.0495	–
x1 = 0.1505	–	0.0676
x1 = 0.2	0.0633	0.0872
x1 = 0.2504	0.0767	0.106
x1 = 0.3005	0.0889	0.123
x1 = 0.3501	0.1	–
x1 = 0.3502	–	0.139
x1 = 0.3998	0.11	0.153
x1 = 0.4503	0.12	0.166
x1 = 0.5004	0.127	–
x1 = 0.5005	–	0.177
x1 = 0.55	0.134	0.187
x1 = 0.5998	0.138	–
x1 = 0.5999	–	0.191
x1 = 0.6497	0.14	0.194
x1 = 0.6995	0.14	0.193
x1 = 0.7505	0.137	0.189
x1 = 0.7996	0.131	0.181
x1 = 0.8495	0.121	0.168
x1 = 0.9002	0.107	0.148
x1 = 0.9499	–	0.116
